The term EC50 denotes the concentration that produces a half-maximal response.

The text below walks through data of paper PMC8518382, “Identification of a Bromodomain‐like Region in 15‐Lipoxygenase‐1 Explains Its Nuclear Localization” (Angewandte Chemie (International Ed. in English), 2021).

Each structure is given as a SMILES string.

Common to all, as to assay type: biochemical
For assay [1], the target named is T1, 12-LOX (Homo sapiens, UniProt P18054).
T1 construct: the endogenous LOXs were captured on an anti‐LOX antibody precoated 96‐well plate; endogenous in cells; host or cells: A549 cell lysate
T1 sequence (P18054 1-663): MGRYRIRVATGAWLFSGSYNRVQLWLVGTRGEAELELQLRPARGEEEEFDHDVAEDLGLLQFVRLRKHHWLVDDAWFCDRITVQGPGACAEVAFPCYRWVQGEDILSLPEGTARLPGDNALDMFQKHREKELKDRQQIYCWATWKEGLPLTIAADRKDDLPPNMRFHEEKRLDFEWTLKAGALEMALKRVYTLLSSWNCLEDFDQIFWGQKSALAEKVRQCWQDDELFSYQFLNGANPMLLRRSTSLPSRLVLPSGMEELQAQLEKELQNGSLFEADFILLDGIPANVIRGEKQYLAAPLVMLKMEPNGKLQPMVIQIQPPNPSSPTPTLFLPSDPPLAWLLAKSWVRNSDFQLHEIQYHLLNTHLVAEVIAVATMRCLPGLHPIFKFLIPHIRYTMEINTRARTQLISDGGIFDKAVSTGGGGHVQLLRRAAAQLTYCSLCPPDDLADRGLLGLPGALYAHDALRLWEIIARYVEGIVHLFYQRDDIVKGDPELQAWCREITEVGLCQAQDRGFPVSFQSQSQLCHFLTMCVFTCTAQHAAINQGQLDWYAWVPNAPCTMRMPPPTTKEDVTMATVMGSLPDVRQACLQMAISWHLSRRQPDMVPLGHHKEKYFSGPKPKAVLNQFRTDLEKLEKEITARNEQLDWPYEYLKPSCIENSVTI
The assay is described as follows: Sandwich ELISA of Labelox B biotinylation in A549 cell lysate, 12-LOX capture. The conditions noted are these: HRP-streptavidin detection, read-out: EC50 of labeling. As to the method: (§1) Labelox B efficiently labels endogenous LOXs. Lipoxygenase labeling by Labelox B was investigated using cell‐based assays. As a first step, labeling efficiency was estimated in intact RAW 264.7 macrophage cells that were treated with Labelox B in concentrations ranging between 1 μM and 100 μM with incubation times between 0.5 h and 6 h. […] As a next step, a sandwich ELISA assay was established in order to find proof that probe Labelox B is indeed labeling proteins with lipoxygenase enzyme activity. Towards this aim, A549 cell lysates were treated with sub‐micromolar to micromolar concentrations of Labelox B. Subsequently, the endogenous LOXs were captured on an anti‐LOX antibody precoated 96‐well plate followed by detection of Labelox B mediated biotinylation using HRP‐conjugated streptavidin. […] Furthermore, probe Labelox B enabled visualization of localized LOX activity in living cells (Figure 2 c). […] The fluorescence intensity increased with increasing doses of Labelox B and labeling was observed throughout the cells in the cytoplasm and the nucleus of A549.
(§2) Figure 2 Labelox B labels endogenous LOXs in a dose‐ and time‐dependent manner. a, b) Western blot analysis of Labelox B labeled LOXs in intact RAW 264.7 for indicated doses and time points. […] The pictures were captured by a Leica DM4000b fluorescence microscope.
Background: An ELISA detects its analyte on a solid surface through an enzyme-linked reagent.

In assay [2] the target is T2, 15-LOX-1 (Homo sapiens, UniProt P16050).
T2 sequence (P16050 1-662): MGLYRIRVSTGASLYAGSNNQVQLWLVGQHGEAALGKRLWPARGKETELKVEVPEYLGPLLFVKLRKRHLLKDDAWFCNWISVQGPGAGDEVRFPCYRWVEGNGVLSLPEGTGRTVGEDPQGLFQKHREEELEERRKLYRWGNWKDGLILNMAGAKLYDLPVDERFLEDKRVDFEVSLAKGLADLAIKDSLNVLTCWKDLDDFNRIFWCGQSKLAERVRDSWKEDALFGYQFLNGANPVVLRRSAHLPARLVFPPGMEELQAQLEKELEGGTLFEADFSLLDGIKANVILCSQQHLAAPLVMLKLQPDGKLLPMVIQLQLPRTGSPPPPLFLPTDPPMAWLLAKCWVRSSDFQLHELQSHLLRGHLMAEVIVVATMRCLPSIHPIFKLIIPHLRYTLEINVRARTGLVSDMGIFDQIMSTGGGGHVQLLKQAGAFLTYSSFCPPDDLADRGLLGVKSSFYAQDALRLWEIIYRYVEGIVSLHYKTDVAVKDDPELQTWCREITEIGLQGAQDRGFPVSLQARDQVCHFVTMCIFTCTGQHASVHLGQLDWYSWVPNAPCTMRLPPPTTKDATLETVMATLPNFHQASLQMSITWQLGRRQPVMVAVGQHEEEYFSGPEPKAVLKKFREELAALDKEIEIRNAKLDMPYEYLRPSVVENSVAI
Briefly: Sandwich ELISA of Labelox B biotinylation in A549 cell lysate, 15-LOX-1 capture. The arrangement: the endogenous LOXs were captured on an anti‐LOX antibody precoated 96‐well plate; endogenous in cells; host or cells: A549 cell lysate. The conditions noted are these: HRP-streptavidin detection, read-out: EC50 of labeling. On the procedure:
as §1, §2

In assay [3] the target is T2, 15-LOX-1. Briefly: Jump dilution assay on recombinant 15-LOX-1. The arrangement: His-tag (N); made in house; host or cells: E. coli BL21(DE3). To be noted: 10 µM for 20 min at room temperature, then 100-fold dilution. As to the method:
Figure S3. Labelox B labeled endogenous LOXs are immunoprecipitated by streptavidin beads. (A) A549 cell lysates were treated with. Labelox B. After labeling, free Labelox B was removed by Vivaspin
2. Labelox B labeled proteins were precipitated by Dynabeads and analyzed by Western blotting. (B) Uncropped Western blots for (A)
LOX-1 was incubated with Labelox B at 10 µM for 20min at room temperature to ensure 100% inhibition. Then, the enzyme/probe mixture was dilution 100-fold and employed for linoleic acid conversion. The group incubated with vehicle was condisered as positive control, while the group in […] of 15-LOX-1 was negative control. […]

Regarding `CCCCCC#CCC#CCOC(=O)CCCC[C@@H]1SC[C@@H]2NC(=O)N[C@@H]21` [Labelox B (3)], the EC50 in assay [1] and in assay [2] was approximately 3.5 µM throughout. In assay [3], the “Reversibility of inhibition” value was “irreversibly inhibits”.
